The values below come from ChEMBL document CHEMBL4483862, “Open-source discovery of chemical leads for next-generation chemoprotective antimalarials” (2018).

The test system of the assay is Plasmodium berghei. Description: Luciferase/luciferin-expressing antifolate-resistant parasites were used to infect a culture of HepG2 cells that were pre-incubated with compounds. Infected hepatocytes emit light due to the luciferase reaction. Assay results are presented as the percent inhibition of light emission compared to control. […]. It counts as functional. As to conditions: sporozoite; for IC90: read-out: LUCIFERASE INFECTION ASSAY - IC90.

The IC50 is the concentration needed to halve the response being measured. The IC90 is the concentration needed for an effect of 90%. Turning to `OCc1ccc(-c2ccc3ncc(-c4cccnc4)n3n2)cc1`, the IC90 stood at 1.91 µM. Besides, for the setting “HEPG2TOX_HILL_SLOPE 8.03, HEPG2TOX_R_SQUARED 0.878, PBLUC_HILL_SLOPE 5.07, PBLUC_R_SQUARED 0.745, read-out: LUCIFERASE INFECTION ASSAY - IC50”, the IC50 stood at 1.24 µM.

For the compound `CN1CCN(c2ccc(-c3cn4c(-c5cccc(O)c5)cnc4cn3)cc2)CC1`, the IC90 was above 8.56 µM. The IC50 (HEPG2TOX_HILL_SLOPE 8.09, HEPG2TOX_R_SQUARED 0.0909, PBLUC_HILL_SLOPE 1.65, PBLUC_R_SQUARED 0.318, read-out: LUCIFERASE INFECTION ASSAY - IC50) was 7.19 µM.

In the case of `COc1cc(/C=C(/C(=O)c2cccc(Cl)c2)c2nc3ccccc3[nH]2)ccc1OCc1ccccc1`, the IC90 was above 10 µM. Also, the half-maximal inhibitory concentration (IC50) (HEPG2TOX_HILL_SLOPE 8.02, HEPG2TOX_R_SQUARED 0.115, read-out: LUCIFERASE INFECTION ASSAY - IC50) is above 10 µM.

As to `Cc1ccc(S(=O)(=O)Oc2ccccc2/C=N/N=C2\NC(=O)CS2)cc1Cl`, the IC90 is above 10 µM. Moreover, the IC50 (HEPG2TOX_HILL_SLOPE 8.05, HEPG2TOX_R_SQUARED 0.112, PBLUC_HILL_SLOPE 0.841, PBLUC_R_SQUARED 0.28, read-out: LUCIFERASE INFECTION ASSAY - IC50) is above 10 µM.

As for `CC(C)c1ccc(Nc2nccc3nc(-c4cccc(C(F)(F)F)c4)[nH]c23)cc1`, the IC90 is above 10 µM. Moreover, under “HEPG2TOX_HILL_SLOPE 8.02, HEPG2TOX_R_SQUARED 0.493, PBLUC_HILL_SLOPE 1.32, PBLUC_R_SQUARED 0.475, read-out: LUCIFERASE INFECTION ASSAY - IC50”, the IC50 was found to be 4.04 µM.

Regarding `CCC(C)(C)c1ccc(Oc2ccc(NC(=O)CN3CCN(c4ccccc4O)CC3)cc2)cc1`, the IC90 is above 10 µM. The IC50 (HEPG2TOX_HILL_SLOPE 8.11, HEPG2TOX_R_SQUARED 0.399, read-out: LUCIFERASE INFECTION ASSAY - IC50) was above 10 µM.

On to `CCCn1c(NC(=O)c2c(C)nn(Cc3ccccc3)c2Cl)nc2ccccc21`, for which the IC90 was above 10 µM. The IC50 (HEPG2TOX_HILL_SLOPE 8.06, 7.61, HEPG2TOX_R_SQUARED 0.217, 0.871, PBLUC_HILL_SLOPE 3.35, PBLUC_R_SQUARED 0.605, read-out: LUCIFERASE INFECTION ASSAY - IC50) was 5.57 µM.

As for `Cn1cc(C(=O)c2ccccc2O)cc1-c1nc2ccccc2[nH]1`, the IC90 is 4.94 µM. In addition, the IC50 (HEPG2TOX_HILL_SLOPE 8.08, HEPG2TOX_R_SQUARED 0.741, PBLUC_HILL_SLOPE 7.01, PBLUC_R_SQUARED 0.754, read-out: LUCIFERASE INFECTION ASSAY - IC50) was 3.61 µM.

Take `O=C(/C=C/c1ccc(-n2nncc2-c2ccccc2)cc1)c1ccccc1`: the IC90 is above 10 µM. For the setting “HEPG2TOX_HILL_SLOPE 8.1, HEPG2TOX_R_SQUARED 0.474, PBLUC_HILL_SLOPE 4.46, PBLUC_R_SQUARED 0.811, read-out: LUCIFERASE INFECTION ASSAY - IC50”, the IC50 came out at 6.74 µM.

As for `CCN1C(=O)N(CCC(C)C)C2(CCN(Cc3ccc4c(c3)Cc3ccccc3-4)CC2)C1=O`, the 90% effect concentration (IC90) is above 7.41 µM. Further, the IC50 (HEPG2TOX_HILL_SLOPE 8.09, HEPG2TOX_R_SQUARED 0.945, PBLUC_HILL_SLOPE 9.13, PBLUC_R_SQUARED 0.509, read-out: LUCIFERASE INFECTION ASSAY - IC50) stood at 5.93 µM.

As to `CCc1ccc(-c2noc(CN3CCN(C(=O)c4ccccc4)CC3)n2)cc1`, the IC90 was above 10 µM. For the same compound, the IC50 (HEPG2TOX_HILL_SLOPE 8.06, HEPG2TOX_R_SQUARED 0.791, read-out: LUCIFERASE INFECTION ASSAY - IC50) is above 10 µM.

For `O=C(c1ccsc1)N1CCc2nc(NCc3cccc(Oc4ccccc4)c3)ncc2C1`, the IC90 was above 7.46 µM. Besides, where the note is “HEPG2TOX_HILL_SLOPE 8.11, HEPG2TOX_R_SQUARED 0.885, read-out: LUCIFERASE INFECTION ASSAY - IC50”, the half-inhibitory concentration (IC50) is above 7.46 µM.

Regarding `Cc1ccc2nc(NC(=O)C(C)Oc3ccccc3)c(C(=O)NC3CCCCC3)n2c1` (stereo not drawn), the concentration for an effect of 90% (IC90) was above 7.85 µM. Also, the IC50 (HEPG2TOX_HILL_SLOPE 7.98, HEPG2TOX_R_SQUARED 0.0955, PBLUC_HILL_SLOPE 9.58, PBLUC_R_SQUARED 0.283, read-out: LUCIFERASE INFECTION ASSAY - IC50) was 6.26 µM.

Take `NC(=S)COc1cc(Cl)cc(Cl)c1`: the IC90 was above 14 µM. The IC50 (HEPG2TOX_HILL_SLOPE 8.05, HEPG2TOX_R_SQUARED 0.893, PBLUC_HILL_SLOPE 16, PBLUC_R_SQUARED 0.105, read-out: LUCIFERASE INFECTION ASSAY - IC50) was 13.4 µM.

`Cc1ccc2nc(NC(=O)c3ccccc3C(F)(F)F)c(C(=O)NCC(C)C)n2c1`: the IC90 stood at 7.86 µM. Besides, under “HEPG2TOX_HILL_SLOPE 8.05, HEPG2TOX_R_SQUARED 0.91, PBLUC_HILL_SLOPE 18.7, PBLUC_R_SQUARED 0.209, read-out: LUCIFERASE INFECTION ASSAY - IC50”, the IC50 was 6.99 µM.

`CS(=O)(=O)c1ccc(N2CCN(c3ccnc4cc(Cl)ccc34)CC2)c([N+](=O)[O-])c1`: the IC90 stood at 8.81 µM. The IC50 (HEPG2TOX_HILL_SLOPE 8.04, HEPG2TOX_R_SQUARED 0.676, PBLUC_HILL_SLOPE 3.39, PBLUC_R_SQUARED 0.378, read-out: LUCIFERASE INFECTION ASSAY - IC50) was found to be 4.61 µM.

In the case of `COc1ccc(OCC[N+](C)(Cc2csc(Nc3ccccc3)n2)Cc2csc(Nc3ccccc3)n2)cc1`, the IC90 came out at 7.93 µM. Moreover, for the setting “HEPG2TOX_HILL_SLOPE 7.97, HEPG2TOX_R_SQUARED 0.988, PBLUC_HILL_SLOPE 3.3, PBLUC_R_SQUARED 0.694, read-out: LUCIFERASE INFECTION ASSAY - IC50”, the IC50 turned out to be 4.08 µM.

For `O=[N+]([O-])c1ccc(N2CCc3ccccc32)cc1`, the IC90 is above 13.7 µM. Further, the half-maximal inhibitory concentration (IC50) (HEPG2TOX_HILL_SLOPE 7.98, HEPG2TOX_R_SQUARED 0.901, PBLUC_HILL_SLOPE 21.8, PBLUC_R_SQUARED 0.45, read-out: LUCIFERASE INFECTION ASSAY - IC50) was 13.3 µM.

Regarding `COc1ccc(Nc2cc3[nH]c(-c4cccc(C(F)(F)F)c4)cc3cn2)c(C)c1`, the IC90 is above 10 µM. The IC50 (HEPG2TOX_HILL_SLOPE 8.02, HEPG2TOX_R_SQUARED 0.0629, PBLUC_HILL_SLOPE 11.9, PBLUC_R_SQUARED 0.386, read-out: LUCIFERASE INFECTION ASSAY - IC50) was determined as 8.34 µM.

Consider `O=C(NC1CCSc2ccccc21)c1cnn(Cc2ccccc2Cl)c1` (stereo not drawn), for which the IC90 is above 10 µM. The IC50 (HEPG2TOX_HILL_SLOPE 8.01, HEPG2TOX_R_SQUARED 0.477, PBLUC_HILL_SLOPE 11.5, PBLUC_R_SQUARED 0.343, read-out: LUCIFERASE INFECTION ASSAY - IC50) came out at 9.41 µM.

With `COc1cc(C2(O)CS/C(=C(/C#N)C(=O)Nc3ccc(Cl)cc3)N2c2ccccc2)cc(OC)c1OC` (stereo not drawn), the 90% effect concentration (IC90) was above 10 µM. Also, the concentration for half-maximal inhibition (IC50) (HEPG2TOX_HILL_SLOPE 8.02, HEPG2TOX_R_SQUARED 0.929, PBLUC_HILL_SLOPE 8.63, PBLUC_R_SQUARED 0.488, read-out: LUCIFERASE INFECTION ASSAY - IC50) was 8.71 µM.

Take `O=C(CSCc1nc(-c2ccc(Cl)cc2)cs1)NNS(=O)(=O)c1ccc(Cl)cc1`: the IC90 was above 6.76 µM. For the setting “HEPG2TOX_HILL_SLOPE 8.04, HEPG2TOX_R_SQUARED 0.486, read-out: LUCIFERASE INFECTION ASSAY - IC50”, the IC50 is above 6.76 µM.

As for `N=C1N/C(=N/NC(=O)c2ccc(CN3C(=O)c4cccc5cccc3c45)cc2)c2ccccc21`, the IC90 was above 10 µM. Moreover, where the note is “HEPG2TOX_HILL_SLOPE 8, HEPG2TOX_R_SQUARED 0.371, PBLUC_HILL_SLOPE 2.14, PBLUC_R_SQUARED 0.479, read-out: LUCIFERASE INFECTION ASSAY - IC50”, the IC50 amounted to 4.48 µM.

On to `O=C(CSc1ccc(S(=O)(=O)N2CCCCCC2)cn1)N1CCN(c2ccccc2F)CC1`, for which the IC90 is above 10 µM. For the same compound, where the note is “HEPG2TOX_HILL_SLOPE 8.02, HEPG2TOX_R_SQUARED 0.252, PBLUC_HILL_SLOPE 16.3, 0.0846, PBLUC_R_SQUARED 0.285, 0.0684, read-out: LUCIFERASE INFECTION ASSAY - IC50”, the IC50 stood at 9.76 µM.

As for `Cc1ccc(-c2csc(Nc3ccccn3)n2)c(C)c1`, the 90% effect concentration (IC90) is above 10 µM. Moreover, the IC50 (HEPG2TOX_HILL_SLOPE 8.07, HEPG2TOX_R_SQUARED 0.196, PBLUC_HILL_SLOPE 0.693, PBLUC_R_SQUARED 0.516, read-out: LUCIFERASE INFECTION ASSAY - IC50) is 0.441 µM.

`CCc1cc(OCCCCCCN2CCC(C)CC2)ccc1Cl`: the IC90 turned out to be 7.91 µM. Further, under “HEPG2TOX_HILL_SLOPE 8.01, HEPG2TOX_R_SQUARED 0.5, PBLUC_HILL_SLOPE 3.89, PBLUC_R_SQUARED 0.522, read-out: LUCIFERASE INFECTION ASSAY - IC50”, the 50% inhibitory concentration (IC50) is 4.49 µM.

As for `Cc1c(-c2ccccc2)oc2c(C(=O)N(Cc3ccccc3Cl)S(=O)(=O)c3cccc(C(F)(F)F)c3)cccc2c1=O`, the IC90 is above 10 µM. Besides, the IC50 (HEPG2TOX_HILL_SLOPE 8.04, HEPG2TOX_R_SQUARED 0.64, PBLUC_HILL_SLOPE 8.59, PBLUC_R_SQUARED 0.6, read-out: LUCIFERASE INFECTION ASSAY - IC50) amounted to 7.82 µM.

Turning to `CCCCc1nc2ccccc2n1CC(=O)Nc1cc(S(=O)(=O)N(C)C)ccc1OC`, the IC90 was above 10 µM. The IC50 (HEPG2TOX_HILL_SLOPE 7.99, HEPG2TOX_R_SQUARED 0.0779, PBLUC_HILL_SLOPE 2.22, PBLUC_R_SQUARED 0.125, read-out: LUCIFERASE INFECTION ASSAY - IC50) was above 10 µM.

As for `CCOc1ccccc1C(=O)N[C@H](C(=O)Nc1sc2c(c1C(N)=O)CCC2)C(C)C`, the IC90 turned out to be 9.93 µM. For the same compound, the 50% inhibitory concentration (IC50) (HEPG2TOX_HILL_SLOPE 7.99, HEPG2TOX_R_SQUARED 0.813, PBLUC_HILL_SLOPE 17.7, PBLUC_R_SQUARED 0.214, read-out: LUCIFERASE INFECTION ASSAY - IC50) stood at 8.77 µM.
